The text below walks through data of patent US6608086B2, “Dihydropyridines and new uses thereof” (Synaptic Pharmaceutical Corporation, priority 1993, dated 2003).

The target in assay [1] is T1, α1C Human Adrenergic Receptor (Homo sapiens, UniProt P35348).
T1 construct: The entire coding region of α1C (1401 bp); expressed in transfected cells
T1 sequence (P35348 1-466): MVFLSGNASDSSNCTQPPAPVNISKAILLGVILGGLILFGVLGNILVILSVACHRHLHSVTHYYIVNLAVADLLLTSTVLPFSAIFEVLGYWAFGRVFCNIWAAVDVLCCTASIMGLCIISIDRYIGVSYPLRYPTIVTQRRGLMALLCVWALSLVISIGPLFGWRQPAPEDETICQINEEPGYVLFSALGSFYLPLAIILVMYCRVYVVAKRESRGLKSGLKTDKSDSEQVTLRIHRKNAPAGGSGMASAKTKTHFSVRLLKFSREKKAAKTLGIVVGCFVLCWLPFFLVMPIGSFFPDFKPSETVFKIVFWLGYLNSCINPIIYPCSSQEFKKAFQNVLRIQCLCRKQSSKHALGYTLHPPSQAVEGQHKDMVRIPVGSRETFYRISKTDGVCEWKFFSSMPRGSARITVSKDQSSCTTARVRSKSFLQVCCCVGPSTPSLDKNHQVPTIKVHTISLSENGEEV
Description: Radioligand binding, [3H]prazosin, cloned human α1C adrenergic receptor. The gist of the method:
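Read-out is filter-retained [3H]prazosin (0.5 nM) bound to membranes of LM(tk−) cells stably carrying the human α1C receptor. Incubation ran 20 min at 37° C. at pH 7.5, with 10 μM phentolamine marking nonspecific binding.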

For the next assay, the target named is T2, α2B receptor (Homo sapiens, UniProt P18089).
T2 construct: host or cells: LM(tk-) cells, line L-NGC-α2B
T2 sequence (P18089 1-450): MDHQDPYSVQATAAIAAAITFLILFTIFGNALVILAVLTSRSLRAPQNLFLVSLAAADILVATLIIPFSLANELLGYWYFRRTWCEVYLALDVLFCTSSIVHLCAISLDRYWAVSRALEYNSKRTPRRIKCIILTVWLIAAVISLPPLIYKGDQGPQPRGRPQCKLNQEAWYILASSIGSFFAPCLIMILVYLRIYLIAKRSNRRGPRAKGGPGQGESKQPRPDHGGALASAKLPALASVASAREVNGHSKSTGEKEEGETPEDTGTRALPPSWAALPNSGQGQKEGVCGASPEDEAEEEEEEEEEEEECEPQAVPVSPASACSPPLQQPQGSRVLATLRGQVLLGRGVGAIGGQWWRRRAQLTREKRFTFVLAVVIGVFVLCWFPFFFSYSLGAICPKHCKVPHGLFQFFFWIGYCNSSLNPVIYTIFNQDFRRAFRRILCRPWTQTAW
Kind of assay: Competition binding, [3H]rauwolscine, human α2B receptor. The gist of the method:
(§1)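 Lysates of LM(tk−) cells stably expressing human α2A, α2B or α2C receptors in 25 mM glycylglycine pH 7.6. Equilibrium competition against 0.5 nM [3H]rauwolscine, with 10 μM phentolamine defining nonspecific binding. Bound ligand separated by GF/B filtration.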

The target of the next assay is T3, α2A receptor (Homo sapiens, UniProt P08913).
T3 construct: host or cells: LM(tk-) cells, line L-α2A
T3 sequence (P08913 1-465): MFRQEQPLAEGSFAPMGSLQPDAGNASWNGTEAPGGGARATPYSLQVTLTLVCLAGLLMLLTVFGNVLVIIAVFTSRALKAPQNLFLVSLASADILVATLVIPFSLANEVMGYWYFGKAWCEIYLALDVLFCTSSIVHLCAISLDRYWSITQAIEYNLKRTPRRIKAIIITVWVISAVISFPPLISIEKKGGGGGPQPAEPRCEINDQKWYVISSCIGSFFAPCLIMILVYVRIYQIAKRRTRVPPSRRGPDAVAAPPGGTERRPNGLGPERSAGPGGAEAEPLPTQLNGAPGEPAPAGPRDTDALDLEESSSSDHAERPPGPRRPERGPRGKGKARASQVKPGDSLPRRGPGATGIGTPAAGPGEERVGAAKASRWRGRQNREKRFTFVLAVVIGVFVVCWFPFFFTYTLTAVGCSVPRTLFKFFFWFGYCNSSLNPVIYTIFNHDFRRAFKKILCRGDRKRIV
Kind of assay: Competition binding, [3H]rauwolscine, human α2A receptor. The gist of the method: as §1

Where [2] appears, read: cloned human receptor in LM(tk-) cell membranes, SEM and n in lines below, read-out: pKi alpha-1 1c (converted).

Each structure is given as a SMILES string. Counter-ions that a name gives are not always drawn. Like-named read-outs stand apart in the source and are kept apart here.

As to `CCC1=C(C(N)=O)C(c2ccc([N+](=O)[O-])cc2)C(C(=O)NCCCN2CCC(O)(c3ccccc3)CC2)=C(CC)N1` (stereo not drawn) [Example 100, 5-Carboxamido-2,6-diethyl-1,4-dihydro-3-{N-(3-(4-hydroxy-4-phenylpiperidin-1-yl)propyl]}carboxamido-4-(4-nitrophenyl)pyridine hydrochloride hydrate], the Ki in assay [1] (pKi alpha-1 1c, cloned human α1C receptor, LM(tk−) cell membranes) was 4.37 nM; at α2B receptor (pKi alpha-2 2b, [3H]rauwolscine, human α2B receptor, LM(tk−) cells) it was 2880 nM; at α2A receptor ([3H]rauwolscine, human α2A receptor, LM(tk−) cells, read-out: pKi alpha-2 2a (converted)), 794 nM.

In the case of `COC(=O)C1=C(C)NC(C)=C(C(=O)NCCCN2CCC(c3ccccc3)(c3ccccc3)CC2)C1c1ccc([N+](=O)[O-])c(C)c1` (stereo not drawn) [Example 28], the Ki in assay [1] (setting [2]) is 9.55 nM; on α2B receptor ([3H]rauwolscine, LM(tk-) cell line L-NGC-α2B, SEM and n in lines below, read-out: pKi alpha-2 2b (converted)), 1660 nM; on α2A receptor ([3H]rauwolscine, LM(tk-) cell line L-α2A, SEM and n in lines below, read-out: pKi alpha-2 2a (converted)), 2290 nM.

On to `COC(=O)C1=C(C)NC(C)=C(C(=O)NCCCN2CCC(c3ccccc3)(c3ccccc3)CC2)C1c1ccc(Cl)c(Cl)c1` (stereo not drawn) [Example 24, 4-(3,4-Dichlorophenyl)-1,4-dihydro-3-methoxycarbonyl-2,6-dimethyl-5-(3-(D 44-diphenylpiperidin-1-yl)propylcarboxamido)pyridine], for which the Ki in assay [1] (setting [2]) is 1.86 nM; at α2B receptor (pKi alpha-2 2b) it was 1260 nM; at α2A receptor it was 912 nM.

In the case of `CCC1=C(C(=O)NCCCN2CCC(c3ccccc3)(c3ccccc3)CC2)C(c2ccc(N)cc2)C(C(=O)OC)=C(C)N1` (stereo not drawn) [Example 114, 4-(4-Aminophenyl)-2-ethyl-1,4-dihydro-5-methoxycarbonyl-6-methyl-3-(N-(3-(4,4-diphenylpiperidin-1-yl)propyl)carboxamido)-pyridine], the Ki in assay [1] (cloned human α1C receptor, LM(tk−) cell membranes, read-out: pKi alpha-1 1c (converted)) was 10.2 nM; at α2B receptor (pKi alpha-2 2b), 468 nM; on α2A receptor, 2090 nM.
